According to ChEMBL document CHEMBL5465560, “Selectivity Literature for EUbOPEN Chemogenomic Library” (2024):

Columns and labels:
[1] = target: Fibroblast growth factor receptor 3 (Homo sapiens, UniProt P22607); assay: Selectivity interaction (ProQinase) EUB0000171b FGFR3; conditions: at 5 µM
[2] = target: Mitogen-activated protein kinase kinase kinase 8 (Homo sapiens, UniProt P41279); assay: Selectivity interaction (ProQinase) EUB0000171b MAP3K8
[3] = target: T1, Mitogen-activated protein kinase kinase kinase 13 (Homo sapiens) (UniProt O43283); assay: Selectivity interaction (KinomeScan (DiscoverX)) EUB0001079a MAP3K13; conditions: at 1 µM
T1 sequence (whole entry): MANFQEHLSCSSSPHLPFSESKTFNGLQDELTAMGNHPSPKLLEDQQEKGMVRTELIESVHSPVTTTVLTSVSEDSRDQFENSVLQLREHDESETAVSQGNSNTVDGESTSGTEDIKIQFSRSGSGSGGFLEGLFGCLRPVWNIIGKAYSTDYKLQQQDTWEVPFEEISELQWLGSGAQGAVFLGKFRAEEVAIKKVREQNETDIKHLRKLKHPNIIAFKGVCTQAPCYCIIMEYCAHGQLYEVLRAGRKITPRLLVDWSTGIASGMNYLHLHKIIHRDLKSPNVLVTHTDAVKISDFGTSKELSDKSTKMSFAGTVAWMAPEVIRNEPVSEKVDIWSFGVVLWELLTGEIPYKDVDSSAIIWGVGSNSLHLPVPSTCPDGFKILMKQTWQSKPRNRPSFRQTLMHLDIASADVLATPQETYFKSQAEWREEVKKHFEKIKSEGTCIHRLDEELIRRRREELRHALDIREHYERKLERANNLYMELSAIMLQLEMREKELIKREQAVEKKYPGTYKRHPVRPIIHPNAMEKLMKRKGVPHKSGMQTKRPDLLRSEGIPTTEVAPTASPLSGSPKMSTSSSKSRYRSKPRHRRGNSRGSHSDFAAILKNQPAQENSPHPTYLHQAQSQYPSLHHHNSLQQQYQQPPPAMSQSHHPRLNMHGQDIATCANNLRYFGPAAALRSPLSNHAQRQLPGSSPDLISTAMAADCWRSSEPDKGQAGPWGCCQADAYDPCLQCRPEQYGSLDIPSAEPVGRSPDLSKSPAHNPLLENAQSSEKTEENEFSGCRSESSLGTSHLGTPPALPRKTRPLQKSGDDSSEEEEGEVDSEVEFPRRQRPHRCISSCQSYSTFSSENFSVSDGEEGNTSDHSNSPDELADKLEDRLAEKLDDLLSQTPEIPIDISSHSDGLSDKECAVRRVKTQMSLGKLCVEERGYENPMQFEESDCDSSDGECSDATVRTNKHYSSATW

[4] = target: Mitogen-activated protein kinase 1 (Homo sapiens, UniProt P28482); assay: Selectivity interaction (Millipore kinase profiler) EUB0000124b MAPK1; conditions: at 10 µM
Sequence of Mitogen-activated protein kinase 1 (P28482 whole entry): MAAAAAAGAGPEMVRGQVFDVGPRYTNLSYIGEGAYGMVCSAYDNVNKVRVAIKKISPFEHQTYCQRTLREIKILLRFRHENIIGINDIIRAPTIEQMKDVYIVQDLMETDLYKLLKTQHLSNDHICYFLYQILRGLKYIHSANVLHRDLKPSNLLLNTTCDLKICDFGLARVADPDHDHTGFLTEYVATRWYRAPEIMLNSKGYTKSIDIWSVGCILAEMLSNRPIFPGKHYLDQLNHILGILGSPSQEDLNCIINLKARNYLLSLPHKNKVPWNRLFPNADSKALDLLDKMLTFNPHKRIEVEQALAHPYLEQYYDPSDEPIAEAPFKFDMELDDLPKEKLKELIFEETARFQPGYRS

[5] = target: T2, Mitogen-activated protein kinase kinase kinase 6 (Homo sapiens) (UniProt O95382); assay: Selectivity interaction (ActivX KiNativ screen (kinase selectivity in THP-1 cell lysates)) EUB0000639a MAP3K6; assay type: subcellular; conditions: lysate, at 1 µM
T2 sequence (whole entry): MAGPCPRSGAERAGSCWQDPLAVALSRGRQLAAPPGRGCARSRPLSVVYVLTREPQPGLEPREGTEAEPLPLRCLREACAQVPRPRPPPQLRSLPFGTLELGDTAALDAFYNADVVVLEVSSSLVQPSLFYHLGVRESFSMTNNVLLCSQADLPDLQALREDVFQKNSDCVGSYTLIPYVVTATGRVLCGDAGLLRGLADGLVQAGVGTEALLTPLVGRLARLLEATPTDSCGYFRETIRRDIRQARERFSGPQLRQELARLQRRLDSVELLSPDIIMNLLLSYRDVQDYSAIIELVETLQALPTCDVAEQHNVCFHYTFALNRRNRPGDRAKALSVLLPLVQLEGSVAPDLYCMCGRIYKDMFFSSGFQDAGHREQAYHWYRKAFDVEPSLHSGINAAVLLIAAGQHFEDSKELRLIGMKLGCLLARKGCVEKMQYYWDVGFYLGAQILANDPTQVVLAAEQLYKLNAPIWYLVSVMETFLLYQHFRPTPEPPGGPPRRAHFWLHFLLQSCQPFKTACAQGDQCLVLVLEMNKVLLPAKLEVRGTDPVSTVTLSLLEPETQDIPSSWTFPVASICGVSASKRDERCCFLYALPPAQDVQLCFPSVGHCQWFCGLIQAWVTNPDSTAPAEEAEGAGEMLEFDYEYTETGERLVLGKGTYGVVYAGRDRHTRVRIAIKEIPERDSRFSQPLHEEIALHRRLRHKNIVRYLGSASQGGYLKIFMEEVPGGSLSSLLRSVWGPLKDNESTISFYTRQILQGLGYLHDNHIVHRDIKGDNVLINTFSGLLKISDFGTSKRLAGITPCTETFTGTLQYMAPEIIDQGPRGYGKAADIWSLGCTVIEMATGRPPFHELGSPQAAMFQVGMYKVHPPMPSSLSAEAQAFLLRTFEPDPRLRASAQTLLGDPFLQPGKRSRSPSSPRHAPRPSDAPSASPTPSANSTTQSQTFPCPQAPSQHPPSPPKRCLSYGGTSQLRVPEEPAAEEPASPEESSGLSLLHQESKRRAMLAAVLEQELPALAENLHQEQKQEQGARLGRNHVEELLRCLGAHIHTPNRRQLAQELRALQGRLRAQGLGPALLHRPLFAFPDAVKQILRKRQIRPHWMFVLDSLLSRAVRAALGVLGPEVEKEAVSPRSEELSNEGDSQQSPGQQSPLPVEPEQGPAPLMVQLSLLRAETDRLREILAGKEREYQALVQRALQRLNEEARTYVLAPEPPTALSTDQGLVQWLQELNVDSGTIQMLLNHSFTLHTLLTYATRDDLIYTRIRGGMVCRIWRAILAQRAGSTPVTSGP

[6] = target: STE20-like serine/threonine-protein kinase (Homo sapiens, UniProt Q9H2G2); assay: Selectivity interaction (ActivX KiNativ screen (ex vivo kinase selectivity in human PBMCs)) EUB0001619a SLK; assay type: cell-based; conditions: PBMC, at 1 µM
Sequence of STE20-like serine/threonine-protein kinase (Q9H2G2 whole entry, looked up): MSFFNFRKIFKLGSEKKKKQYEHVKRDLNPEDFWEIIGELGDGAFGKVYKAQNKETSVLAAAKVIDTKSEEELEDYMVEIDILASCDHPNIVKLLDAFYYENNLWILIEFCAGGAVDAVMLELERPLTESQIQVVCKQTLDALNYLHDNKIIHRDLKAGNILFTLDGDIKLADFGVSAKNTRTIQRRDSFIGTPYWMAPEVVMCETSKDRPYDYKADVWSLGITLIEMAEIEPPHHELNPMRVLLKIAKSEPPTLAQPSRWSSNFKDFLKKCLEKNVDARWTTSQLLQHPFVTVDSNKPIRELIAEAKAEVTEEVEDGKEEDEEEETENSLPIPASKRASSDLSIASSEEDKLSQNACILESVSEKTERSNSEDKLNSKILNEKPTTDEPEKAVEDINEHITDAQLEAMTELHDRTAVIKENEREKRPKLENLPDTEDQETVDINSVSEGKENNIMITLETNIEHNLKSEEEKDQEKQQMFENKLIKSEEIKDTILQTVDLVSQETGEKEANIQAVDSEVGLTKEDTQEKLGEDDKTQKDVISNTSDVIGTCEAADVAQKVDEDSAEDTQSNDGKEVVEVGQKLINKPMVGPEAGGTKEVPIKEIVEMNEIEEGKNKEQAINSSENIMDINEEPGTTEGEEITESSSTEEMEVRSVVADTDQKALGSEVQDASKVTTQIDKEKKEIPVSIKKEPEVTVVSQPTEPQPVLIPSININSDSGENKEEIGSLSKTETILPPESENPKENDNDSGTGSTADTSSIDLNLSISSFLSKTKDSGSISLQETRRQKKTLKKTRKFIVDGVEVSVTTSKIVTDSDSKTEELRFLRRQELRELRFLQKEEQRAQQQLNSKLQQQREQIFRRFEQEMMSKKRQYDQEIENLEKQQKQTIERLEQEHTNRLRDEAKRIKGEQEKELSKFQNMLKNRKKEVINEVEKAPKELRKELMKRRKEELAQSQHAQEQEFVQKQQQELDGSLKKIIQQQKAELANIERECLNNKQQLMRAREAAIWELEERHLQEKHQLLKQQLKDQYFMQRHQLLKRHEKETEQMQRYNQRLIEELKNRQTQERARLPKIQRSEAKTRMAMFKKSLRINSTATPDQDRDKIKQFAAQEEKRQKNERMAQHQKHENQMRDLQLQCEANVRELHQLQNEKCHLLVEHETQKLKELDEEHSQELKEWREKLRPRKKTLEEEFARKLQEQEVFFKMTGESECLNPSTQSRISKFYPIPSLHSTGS

Sequence of Mitogen-activated protein kinase kinase kinase 8 (P41279 whole entry): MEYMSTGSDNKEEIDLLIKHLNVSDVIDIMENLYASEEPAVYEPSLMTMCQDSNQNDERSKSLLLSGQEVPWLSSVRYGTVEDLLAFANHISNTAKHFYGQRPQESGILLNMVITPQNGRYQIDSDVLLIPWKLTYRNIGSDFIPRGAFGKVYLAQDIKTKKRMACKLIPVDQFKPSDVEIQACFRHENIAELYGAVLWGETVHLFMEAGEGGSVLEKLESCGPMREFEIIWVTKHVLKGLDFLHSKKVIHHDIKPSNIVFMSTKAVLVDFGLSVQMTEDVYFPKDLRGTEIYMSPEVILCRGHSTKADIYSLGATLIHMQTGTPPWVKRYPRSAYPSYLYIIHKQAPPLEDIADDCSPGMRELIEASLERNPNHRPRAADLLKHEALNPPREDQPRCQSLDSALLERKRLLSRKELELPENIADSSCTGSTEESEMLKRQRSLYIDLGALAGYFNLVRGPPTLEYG
Sequence of Fibroblast growth factor receptor 3 (P22607 23-806 limits assumed): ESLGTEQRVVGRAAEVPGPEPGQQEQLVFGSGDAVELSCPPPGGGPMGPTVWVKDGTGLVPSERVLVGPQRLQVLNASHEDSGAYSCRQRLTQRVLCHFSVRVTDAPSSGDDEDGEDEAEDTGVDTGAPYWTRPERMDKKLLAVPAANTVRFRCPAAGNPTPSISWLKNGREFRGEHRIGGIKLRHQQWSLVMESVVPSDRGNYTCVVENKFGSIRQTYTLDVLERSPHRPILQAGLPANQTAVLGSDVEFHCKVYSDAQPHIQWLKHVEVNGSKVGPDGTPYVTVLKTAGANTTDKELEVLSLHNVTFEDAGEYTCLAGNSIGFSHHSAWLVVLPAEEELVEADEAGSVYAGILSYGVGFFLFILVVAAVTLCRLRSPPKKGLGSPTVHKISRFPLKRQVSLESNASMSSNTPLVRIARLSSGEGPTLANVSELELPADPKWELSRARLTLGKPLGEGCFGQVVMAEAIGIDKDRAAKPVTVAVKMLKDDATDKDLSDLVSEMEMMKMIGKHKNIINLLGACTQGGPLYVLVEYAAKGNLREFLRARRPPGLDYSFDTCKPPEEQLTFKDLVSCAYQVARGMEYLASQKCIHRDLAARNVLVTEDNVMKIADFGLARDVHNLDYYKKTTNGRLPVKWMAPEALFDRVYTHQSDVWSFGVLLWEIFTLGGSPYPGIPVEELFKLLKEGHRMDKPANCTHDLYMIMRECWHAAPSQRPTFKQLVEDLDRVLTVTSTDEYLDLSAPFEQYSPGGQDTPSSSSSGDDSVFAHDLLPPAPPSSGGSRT

`C=CC(=O)Nc1cccc(C(=O)Nc2ccc(Nc3cc(-c4[nH]c(SC)nc4C)ccn3)cc2)c1` showed a % of control [1] of 91%, a % of control ([2]; at 1 µM) of 95% and a % of control ([2]; at 5 µM) of 103%.
In the case of `Nc1cnc(N2CCc3cc(S(=O)(=O)Nc4c(F)cc(Cl)cc4F)cc(N4CCCC4=O)c32)nc1` [TP-020n], the % of control [3] was 100%.
Work on `CC(=O)Nc1cccc(-n2c(=O)n(C3CC3)c(=O)c3c(Nc4ccc(I)cc4F)n(C)c(=O)c(C)c32)c1` yielded a % of control [4] of 86%.
Work on `CC[C@@H]1[C@H](F)C(=O)N[C@@H]1COc1nccc2cc(C(N)=O)c(OC)cc12` [ZIMLOVISERTIB] yielded a % of inhibition [5] of -16.4%.
`N#Cc1cccc(-c2c[nH]c3ncnc(N4CCOCC4)c23)c1` gave a % of inhibition [6] of 66%.
